Test results taken from ChEMBL document CHEMBL1141258, “Prismatomerin, a new iridoid from Prismatomeris tetrandra. Structure elucidation, determination of absolute configuration, and cytotoxicity” (J Nat Prod, 2007).
≈ marks a conversion by molar mass, not a printed value.

Experiments:
[1] = tested on: L929; experiment: Antiproliferative activity against mouse L929 cells after 5 days by SRB assay; type: cell-based; conditions: L929, 120 h
[2] = Antiproliferative activity against human KB31 cells after 5 days by MTT assay; conditions: KB 3-1, 120 h
[3] = tested on: A549; experiment: Antiproliferative activity against human A549 cells after 5 days by MTT assay; conditions: A549, 120 h
[4] = tested on: SW480; experiment: Antiproliferative activity against human SW480 cells after 5 days by MTT assay; conditions: SW480, 120 h
[5] = Toxicity in brine shrimp after 24 hrs; type: organism-based; conditions: artemia, in vivo; read-out: LD50
[6] = Toxicity in brine shrimp after 48 hrs; type: organism-based; conditions: artemia, in vivo; read-out: LD50

Row | IC50 [3] | IC50 [4] | Structure (SMILES) | IC50 [1] | IC50 [2] | LC50 at 24 h [5] | LC50 at 48 h [6]
1 | 1600 nM | 84 nM | COC(=O)C1=CO[C@@H]2O[C@H]3/C(=C\c4ccc(OC(C)=O)cc4)C(=O)O[C@]34C=C[C@H]1[C@H]24 | 410 nM | 350 nM | – | –
2 | – | – | COC(=O)C1=CO[C@H](O[C@@H]2O[C@H](CO)[C@@H](O)[C@H](O)[C@H]2O)[C@H]2[C@@H]1C=C[C@@]21C=C(C(O)c2ccc(O)cc2)C(=O)O1 (stereo partly specified) [GAERTNEROSIDE] | – | – | 0.38 µg/mL (≈ 0.693 µM) | 224 nM
